Laboratory results from US11773085B2 (Foghorn Therapeutics Inc., priority 2018, dated 2023).

Experiments:
[1] = molecular target: BRD9 bromodomain (Homo sapiens (Human), UniProt Q9H8M2); test: BRD9 bromodomain TR-FRET competition binding assay; settings: 3 nM Flag-BRD9, 3.75 nM biotinylated ligand, 90 minutes at room temperature
Procedure: Cleaved His tag was removed by purification.
A mixture of biotinylated-ligand and SureLight™ Allophycocyanin-Streptavidin (APC-SA, PerkinElmer AD0201) in 50 mM HEPES (pH 7.4), 50 mM NaCl, 1 mM TCEP (pH 7), 0.01% (v/v) Tween-20, 0.01% (w/v) bovine serum albumin was added to a white 384-well PerkinElmer Proxiplate Plus plate. DMSO or 3-fold serially diluted compounds were then added to the Proxiplate followed by addition of Flag-BRD9. After a 10 minute incubation at room temperature, Eu-W1024 anti-FLAG (PerkinElmer, AD0273) was added.

[2] = molecular target: Nanoluciferase-BRD9 fusion protein (3×FLAG-NLuc-BRD9) (Homo sapiens (Human), UniProt Q9H8M2); test: SYO1 BRD9 NanoLuc degradation assay; type: cell-based; settings: SYO-1 cells expressing 3×FLAG-NLuc-BRD9, 6 hours, 1 μM top dose; read-out: SYO1 BRD9-NanoLuc degradation IC50
Procedure: A stable SYO-1 cell line expressing 3×FLAG-NLuc-BRD9 was generated. On day 0 cells were seeded in 30 μL media into each well of 384-well cell culture plates. The seeding density was 8000 cells/well. […] Subsequently plates were incubated for 6 hours in a standard tissue culture incubator and equilibrated at room temperature for 15 minutes. Nanoluciferase activity was measured by adding 15 μL of freshly prepared Nano-Glo Luciferase Assay Reagent (Promega N1130), shaking the plates for 10 minutes and reading the bioluminescence using an EnVision reader.
The Inhibition % was calculated using the following formula: % Inhibition=100×(LumHC−LumSample)/(LumHC−LumLC). DMSO treated cells are employed as High Control (HC) and 1 μM of a known BRD9 degrader standard treated cells are employed as Low Control (LC).

[3] = test system: synovial sarcoma cell lines (SYO1, Yamato, HS-SY-II, and ASKA); test: Growth of synovial sarcoma cell lines (IncuCyte confluency, crystal violet, colony imaging); type: cell-based; settings: 1 μM in crystal violet assay, FIGS. 5, 6, 7
Procedure: (§1) Cells were treated with DMSO or the BRD9 degrader, Compound 1, at indicated concentrations, and proliferation was monitored from day 7 to day 14 by measuring confluency over time using an IncuCyte live cell analysis system (FIG. 5). Growth medium and compounds were refreshed every 3-4 days.
(§2) Cells were seeded into 12-well plates and treated with DMSO, 1 μM BRD9 inhibitor, Compound 2 (also known as BI-7273, see Martin et al, J Med Chem. 59(10):4462-4475 (2016); see structure of compound 2 below), or 1 μM BRD9 degrader, Compound 1.
(§3) The number of cells was optimized for each cell line. Growth medium and compounds were refreshed every 3-5 days. SYO1, Yamato, A549, 293T and HS-SY-II cells were fixed and stained at day 11. ASKA cells were fixed and stained at day 23. Staining was done by incubation with crystal violet solution (0.5 g Crystal Violet, 27 ml 37% Formaldehyde, 100 mL 10×PBS, 10 mL Methanol, 863 dH20 to 1 L) for 30 min followed by 3× washes with water and drying the plates for at least 24 h at room temperature. Subsequently plates were scanned on an Odyssey CLx Imaging system (FIG. 6).
(§4) Cells were seeded into 96-well ultra low cluster plate (Costar, #7007) in 200 μL complete media and treated at day 2 with DMSO, Staurosporin, or BRD9 degarder, Compound 1, at indicated doses (FIG. 7). Media and compounds were changed every 5 d and cell colonies were imaged at day 14.

[4] = test system: non-synovial control cancer cell lines (293T, A549, G401); test: Growth of non-synovial control cancer cell lines (crystal violet, colony imaging); type: cell-based; settings: FIGS. 5, 6, 7
Procedure: as §1, §2, §3, §4

[5] = test system: synovial sarcoma cell lines (SYO1, HS-SY-II, and ASKA); test: Growth of synovial sarcoma cell lines, crystal violet staining at day 14; type: cell-based; settings: for inhibition of cell growth: SYO1, HS-SY-II, ASKA, treated daily, day 14, FIG. 8
Procedure: (§5) Cells were seeded into 6-well or 12-well plates and were treated daily with a BRD9 degrader (Compound 1), a bromo-domain BRD9 binder (Compound 2), E3 ligase binder (lenalidomide), DMSO, or staurosporin (positive control for cell killing), at indicated concentrations. The number of cells was optimized for each cell line. Growth media was refreshed every 5 days. By day 14, medium was removed, cells were washed with PBS, and stained using 500 μL of 0.005% (w/v) crystal violet solution in 25% (v/v) methanol for at least 1 hour at room temperature. Subsequently plates were scanned on an Odyssey CLx Imaging system.

[6] = test system: non-synovial control cancer cell lines (RD, HCT116, and Calu6); test: Growth of non-synovial control cancer cell lines, crystal violet staining at day 14; type: cell-based; settings: treated daily, FIG. 9
Procedure: as §5

[7] = test system: SYO1 cells; test: Cell cycle analysis, Click-iT Plus EdU Flow Cytometry Assay; type: cell-based; settings: SYO1, 200 nM or 1 μM, 8 or 13 days, compared to DMSO and lenalidomide
Procedure: (§6) SYO1 cells were treated for 8 or 13 days with DMSO, a BRD9 degrader (Compound 1) at 200 nM or 1 μM, or an E3 ligase binder (lenalidomide) at 200 nM. Compounds were refreshed every 5 days. Cell cycle analysis was performed using the Click-iT™ Plus EdU Flow Cytometry Assay (Invitrogen). The apoptosis assay was performed using the Annexin V-FITC Apoptosis Detection Kit (Sigma A9210). Assays were performed according to the manufacturer's protocol.

[8] = test system: SYO1 cells; test: Apoptosis assay, Annexin V-FITC Apoptosis Detection Kit; type: cell-based; settings: SYO1, 200 nM or 1 μM, 8 days, compared to DMSO controls
Procedure: as §6

Compound | IC50 [1] | DC50 [2] | further results
COc1cc(-c2cn(C)c(=O)c3cnccc23)cc(OC)c1CN(C)C [Compound 2] | – | – | inhibition of cell growth [3]: results in inhibition of the growth of the cells; inhibition of cell growth [4]: does not result in inhibition of the growth; inhibition of cell growth [5]: resulted in inhibition of the growth of the cells; inhibition of cell growth [6]: did not result in inhibition of the growth
COc1cc(-c2cn(C)c(=O)c3cnccc23)cc(OC)c1CN(C)C(=O)CCCOc1cccc2c1C(=O)N(C1CCC(=O)NC1=O)C2=O (stereo not drawn) [Compound D11, N-[[2,6-dimethoxy-4-(2-methyl-1-oxo-1,2-dihydro-2,7-naphthyridin-4-yl)phenyl]methyl]-4-[[2-(2,6-dioxopiperidin-3-yl)-1,3-dioxo-2,3-dihydro-1H-isoindol-4-yl]oxy]-N-methylbutanamide] | < 10 nM | < 10 nM | –
COc1cc(-c2cn(C)c(=O)c3cnccc23)cc(OC)c1CN(C)CC(=O)NCCOCCOCCNc1cccc2c1C(=O)N(C1CCC(=O)NC1=O)C2=O (stereo not drawn) [Compound 1] | – | – | inhibition of cell growth [3]: results in inhibition of the growth of the cells; inhibition of cell growth [4]: does not result in inhibition of the growth; inhibition of cell growth [5]: resulted in inhibition of the growth of the cells; growth inhibition compared with the other agents tested ([5]; all synovial cell lines, versus Compound 2 and lenalidomide): most significant growth inhibition; inhibition of cell growth [6]: did not result in inhibition of the growth; numbers of cells in the S-phase of the cell cycle [7]: reduced numbers of cells in the S-phase; numbers of early- and late-apoptotic cells [8]: increased numbers of early- and late-apoptotic cells
COc1cc(-c2cn(C)c(=O)c3cnccc23)cc(OC)c1CN(C)Cc1cccc2c1C(=O)N(C1CCC(=O)NC1=O)C2=O (stereo not drawn) [Compound D15, 4-(((2,6-dimethoxy-4-(2-methyl-1-oxo-1,2-dihydro-2,7-naphthyridin-4-yl)benzyl)(methyl)amino)methyl)-2-(2,6-dioxopiperidin-3-yl)isoindoline-1,3-dione formic acid] | 10 to 100 nM | > 1000 nM | –
COc1cc(-c2cn(C)c(=O)c3cnccc23)cc(OCC(=O)NCCCCCCCCNc2cccc3c2C(=O)N(C2CCC(=O)NC2=O)C3=O)c1CN(C)C (stereo not drawn) [Compound D9, 2-(2-((dimethylamino)methyl)-3-methoxy-5-(2-methyl-1-oxo-1,2-dihydro-2,7-naphthyridin-4-yl)phenoxy)-N-(8-((2-(2,6-dioxopiperidin-3-yl)-1,3-dioxoisoindolin-4-yl)amino)octyl)acetamide] | 10 to 100 nM | < 10 nM | –

Second part, led by results:

IC50 [1] | DC50 [2] | Compound | further results
10 to 100 nM | 10 to 100 nM | COc1cc(-c2cn(C)c(=O)c3cnccc23)cc(OC)c1CN(C)CC(=O)N(C)CCOCCOCCNc1ccc2c(c1)C(=O)N(C1CCC(=O)NC1=O)C2=O (stereo not drawn) [Compound D16, 2-((2,6-dimethoxy-4-(2-methyl-1-oxo-1,2-dihydro-2,7-naphthyridin-4-yl)benzyl)(methyl)amino)-N-(2-(2-(2-((2-(2,6-dioxopiperidin-3-yl)-1,3-dioxoisoindolin-5-yl)amino)ethoxy)ethoxy)ethyl)-N-methylacetamide] | –
10 to 100 nM | 100 to 1000 nM | COc1cc(-c2cn(C)c(=O)c3cnccc23)cc(OC)c1CN(C)CCN(C)CCOCCOc1cccc2c1C(=O)N(C1CCC(=O)NC1=O)C2=O (stereo not drawn) [Compound D1, 4-[2-(2-[[2-([[2,6-dimethoxy-4-(2-methyl-1-oxo-2,7-naphthyridin-4-yl)phenyl]methyl](methyl)amino)ethyl](methyl)amino]ethoxy)ethoxy]-2-(2,6-dioxopiperidin-3-yl)isoindole-1,3-dione; formic acid] | –
10 to 100 nM | 10 to 100 nM | COc1cc(-c2cn(C)c(=O)c3cnccc23)cc(OC)c1CN(C)CC(=O)N(C)CCCCCNc1cccc2c1C(=O)N(C1CCC(=O)NC1=O)C2=O (stereo not drawn) [Compound D7, 2-([[2,6-dimethoxy-4-(2-methyl-1-oxo-1,2-dihydro-2,7-naphthyridin-4-yl)phenyl]methyl](methyl)amino)-N-(5-[[2-(2,6-dioxopiperidin-3-yl)-1,3-dioxo-2,3-dihydro-1H-isoindol-4-yl]amino]pentyl)-N-methylacetamide formic acid] | –
10 to 100 nM | > 1000 nM | COc1cc(-c2cn(C)c(=O)c3cnccc23)cc(OC)c1CN(C)CCOCCOCC(=O)N[C@H](C(=O)N1C[C@H](O)C[C@H]1C(=O)NCc1ccc(-c2scnc2C)cc1)C(C)(C)C [Compound D20] | –
10 to 100 nM | 10 to 100 nM | COc1cc(-c2cn(C)c(=O)c3cnccc23)cc(OC)c1CN(C)CC(=O)NCCCCCNc1cccc2c1C(=O)N(C1CCC(=O)NC1=O)C2=O (stereo not drawn) [Compound D3, 2-([[2,6-dimethoxy-4-(2-methyl-1-oxo-1,2-dihydro-2,7-naphthyridin-4-yl)phenyl]methyl](methyl)amino)-N-(5-[[2-(2,6-dioxopiperidin-3-yl)-1,3-dioxo-2,3-dihydro-1H-isoindol-4-yl]amino]pentyl)acetamide formic acid] | –
